Values quoted from earlier work as cited in patent US7700778B2, “Acylated piperidine derivatives as melanocortin-4 receptor agonists” (Merck Sharp & Dohme Corp., priority 2001, dated 2010).

What was measured:
[1] = test system: males with psychogenic erectile dysfunction
[2] = in vivo, po
[3] = test system: men

Compound	duration of action ([1]; in vivo)	time to onset of erection ([1]; in vivo)	response rate ([1]; injected intramuscularly or subcutaneously)	absorption into the systemic circulation [2]	duration of effect ([3]; after an oral dose)	onset of action ([3]; after an oral dose)	share of men/patients in whom effective (adequate response) ([3]; oral)
Ac-Nle-c[Asp-His-DPhe-Arg-Trp-Lys]-NH2 [MT-II]	approximately 2.5 hours	10 to 20 min	75%	not absorbed into the systemic circulation			
Cc1ccc(N(CC2=NCCN2)c2cccc(O)c2)cc1 [phentolamine]					2 h	5 to 30 min	35-40%
